Results reported in US4443536A, “Nondiffusible photographic couplers and photographic elements and processes employing same” (Eastman Kodak Company, priority 1982, dated 1984).
Values joined by “and” are separate entries in the source; they are usually repeats but may differ in a detail not shown here. Identical values can stand only once. Blank lines part the entries; values can stand above or below the compound they belong to.

Experiment: Dye hue from spectrophotometric curves: λ-max, half band width, curve shape factor
Conditions: for CSF (curve shape factor, 100 X TBW/HBW) / HBW (half band width) / λ-max (maximum absorption peak of dye): Table I; for CSF / HBW / λ-max: Table II
Procedure: Photographic elements containing couplers of this invention and control couplers were prepared and tested according to the procedures described below.
The photosensitive layer was overcoated with a layer containing gelatin at 1.08 g/m^2 and bis-vinyl-sulfonylmethyl ether at 1.75 weight percent based on total gelatin.
Samples of each element were imagewise exposed through a graduated-density test object and processed at 40° C. employing one of three color developing solutions identified below then stopped, bleached, fixed and washed.
In each element, well-defined, dye images were produced which were evaluated by plotting dye density vs. log exposure sensitometric curves and recording the maximum dye density (Dmax) and gamma (γ) i.e., the contrast determined by the slope of the straight line portion of the curve. Additionally, dye hues were evaluated from spectrophotometric curves by measuring the maximum absorption peak (λmax) normalized to a density of 1.0 and the half band width (HBW). Halfband width is the width, in nanometers, of the spectrophotometric curve at one-half the difference between maximum density and stain. Similarly, the top-band width (TBW) and bottom-band width (BBW) of the curve were measured at three-fourths and one-fourth, respectively, of the normalized density. Curve shape factor (CSF) equals 100 X TBW/HBW and provides a ratio of the width near the top and bottom of the absorption curve. The greater this ratio, the steeper are the sides of the absorption peak, and the more efficient is the dye's absorption of light in its spectral region.
Photographic elements containing additional couplers of this invention were prepared, processed and evaluated as described above in connection with Examples 1-14.

[1] = coupler solvent CS-1, developer D-1
[2] = coupler solvent CS-2, developer D-2
[3] = coupler solvent CS-2, developer D-3
[4] = coupler solvent CS-3, developer D-2
[5] = coupler solvent CS-3, developer D-1
[6] = coupler solvent CS-3, developer D-3
[7] = coupler solvent CS-4, developer D-3

- CSF (curve shape factor, 100 X TBW/HBW) [1]: 43.3 and 43.6 and 43.1
- HBW (half band width) [1]: 94 nanometers
- λ-max (maximum absorption peak of dye) [1]: 531
SMILES: CCCCCCCCCCCCCCCc1cccc(OC(CC)C(=O)NC2=NN(c3c(C)cc(C)cc3Cl)C(=O)C2)c1 (stereo not drawn) [CC-1, reference compound]

- CSF (curve shape factor, 100 X TBW/HBW) [2]: 46.3 and 39.5 and 39.9
- λ-max (maximum absorption peak of dye) [2]: 539 and 540
- CSF (curve shape factor, 100 X TBW/HBW) [3]: 40.4
- HBW (half band width) [3]: 79 nanometers
- λ-max (maximum absorption peak of dye) [3]: 545
SMILES: CCCCCCCCCCCCC(Oc1ccc(O)c(C(C)(C)C)c1)C(=O)Nc1ccc(Cl)c(NC2=NN(c3c(Cl)cc(Cl)cc3Cl)C(=O)C2)c1 (stereo not drawn) [CC-2, reference compound]
- HBW (half band width) [2]: 81 nanometers and 79 nanometers and 78 nanometers

- CSF (curve shape factor, 100 X TBW/HBW) [3]: 45.3
- HBW (half band width) [3]: 88 nanometers
- λ-max (maximum absorption peak of dye) [3]: 556
SMILES: CCC(C)(C)c1ccc(OCC(=O)Nc2cccc(C(=O)NC3=NN(c4c(Cl)cc(Cl)cc4Cl)C(=O)C3)c2)c(C(C)(C)CC)c1 [CC-3, reference compound]

- CSF (curve shape factor, 100 X TBW/HBW) [4]: 45.2
- HBW (half band width) [4]: 141 nanometers
- λ-max (maximum absorption peak of dye) [4]: 659
SMILES: CCc1c(Cl)cc(NC(=O)C(CC)Oc2ccc(C(C)(C)CC)cc2C(C)(C)CC)c(O)c1Cl (stereo not drawn) [CC-4, reference compound]

- CSF (curve shape factor, 100 X TBW/HBW) [4]: 43.5
- HBW (half band width) [4]: 88 nanometers
- λ-max (maximum absorption peak of dye) [4]: 446
SMILES: CCCCCCCCCCCCCCCCS(=O)(=O)Nc1ccc(Cl)c(NC(=O)C(Oc2ccc(S(=O)(=O)c3ccc(OCc4ccccc4)cc3)cc2)C(=O)C(C)(C)C)c1 (stereo not drawn) [CC-5, reference compound]

- CSF (curve shape factor, 100 X TBW/HBW) [4]: 42.0
- HBW (half band width) [4]: 85 nanometers
- λ-max (maximum absorption peak of dye) [4]: 441
SMILES: CCC(C)(C)c1ccc(OCCCC(=O)Nc2ccc(Cl)c(NC(=O)C(Oc3ccc(S(=O)(=O)c4ccc(OCc5ccccc5)cc4)cc3)C(=O)C(C)(C)C)c2)c(C(C)(C)CC)c1 (stereo not drawn) [CC-6, reference compound]

- CSF (curve shape factor, 100 X TBW/HBW) [4]: 45.2
- HBW (half band width) [4]: 85 nanometers
- λ-max (maximum absorption peak of dye) [4]: 445
SMILES: CCCCC(Oc1ccc(S(=O)(=O)c2ccc(OCc3ccccc3)cc2)cc1)C(=O)Nc1ccc(Cl)c(NC(=O)C(Oc2ccc(S(=O)(=O)c3ccc(O)cc3)cc2)C(=O)C(C)(C)C)c1 (stereo not drawn) [CC-7, reference compound]

- CSF (curve shape factor, 100 X TBW/HBW) [4]: 44.3
- HBW (half band width) [4]: 90 nanometers
- λ-max (maximum absorption peak of dye) [4]: 439
SMILES: CCCCC(Oc1ccc(S(=O)(=O)c2ccc(OCc3ccccc3)cc2)cc1)C(=O)Nc1cccc(NC(=O)C(Oc2ccc(S(=O)(=O)c3ccc(O)cc3)cc2)C(=O)C(C)(C)C)c1 (stereo not drawn) [CC-8, reference compound]

- CSF (curve shape factor, 100 X TBW/HBW) [5]: 43.8
- HBW (half band width) [5]: 87 nanometers
- λ-max (maximum absorption peak of dye) [5]: 450
SMILES: CCCCCCCCCCC(Oc1ccc(S(=O)(=O)c2ccc(OCc3ccccc3)cc2)cc1)C(=O)Nc1ccc(Cl)c(NC(=O)C(Oc2ccc(S(=O)(=O)c3ccc(O)cc3)cc2)C(=O)C(C)(C)C)c1 (stereo not drawn) [CC-9, reference compound]

- CSF [5]: 45.7%
- HBW [5]: 144 nm
- λ-max [5]: 655 nm
SMILES: CCCCCCCCCCCCC(Oc1ccc(S(=O)(=O)c2ccc(O)cc2)cc1)C(=O)Nc1ccc(NC(=O)CCC)c(O)c1 (stereo not drawn) [Coupler C-2]

- CSF [4]: 47.8%
- HBW [4]: 161 nm
- λ-max [4]: 659 nm
SMILES: CCCCCCCCCCCCC(Oc1ccc(S(=O)(=O)c2ccc(O)cc2)cc1)C(=O)Nc1ccc(NC(=O)C(F)(F)F)c(O)c1 (stereo not drawn) [Coupler C-3]

- CSF [6]: 44.4%
- HBW [6]: 135 nm
- λ-max [6]: 702 nm
SMILES: CCCCCCCCCCC(Oc1ccc(S(=O)(=O)c2ccc(O)cc2)cc1)C(=O)Nc1cc(O)c(NC(=O)Nc2cccc(S(=O)(=O)NCCCC)c2)cc1OC (stereo not drawn) [Coupler C-13]

- CSF (curve shape factor, 100 X TBW/HBW) [4]: 47.0
- HBW (half band width) [4]: 160 nanometers
- λ-max (maximum absorption peak of dye) [4]: 675
SMILES: CCCCCCCCCCC(Oc1ccc(S(=O)(=O)c2ccc(O)cc2)cc1)C(=O)Nc1cc(Cl)c(CC)c(Cl)c1O (stereo not drawn) [Coupler C-31]

- CSF (curve shape factor, 100 X TBW/HBW) [1]: 46.0
- HBW (half band width) [1]: 96 nanometers
- λ-max (maximum absorption peak of dye) [1]: 546
- CSF [1]: 45.7%
- HBW [1]: 96 nm
- λ-max [1]: 546 nm
SMILES: CCCCCCCCCCCCC(Oc1ccc(S(=O)(=O)c2ccc(O)cc2)cc1)C(=O)NC1=NN(c2c(Cl)cc(Cl)cc2Cl)C(=O)C1 (stereo not drawn) [Coupler M-3]

- CSF (curve shape factor, 100 X TBW/HBW) [3]: 50.5
- HBW (half band width) [3]: 86 nanometers
- λ-max (maximum absorption peak of dye) [3]: 550
SMILES: CCCCCCCCCCC(Oc1ccc(S(=O)(=O)c2ccc(O)cc2)cc1)C(=O)Nc1ccc(CCCc2n[nH]c3cc(C)nn23)cc1 (stereo not drawn) [Coupler M-8]

- CSF [7]: 44.2%
- HBW [7]: 90 nm
- λ-max [7]: 558 nm
SMILES: CCCCCCCCCCC(Oc1ccc(S(=O)(=O)c2ccc(O)cc2)cc1)C(=O)Nc1ccc(CCCc2n[nH]c3c(Cl)c(C)nn23)cc1 (stereo not drawn) [Coupler M-9]

- CSF (curve shape factor, 100 X TBW/HBW) [1]: 47.0
- HBW (half band width) [1]: 91 nanometers
- λ-max (maximum absorption peak of dye) [1]: 545
SMILES: CCCCCCCCCCCCC(Oc1ccc(S(=O)(=O)c2ccc(O)cc2)cc1)C(=O)Nc1ccc(Cl)c(NC2=NN(c3c(Cl)cc(Cl)cc3Cl)C(=O)C2)c1 (stereo not drawn) [Coupler M-27]

- CSF (curve shape factor, 100 X TBW/HBW) [1]: 46.7
- HBW (half band width) [1]: 92 nanometers
- λ-max (maximum absorption peak of dye) [1]: 549
- CSF (curve shape factor, 100 X TBW/HBW) [2]: 46.5
- HBW (half band width) [2]: 93 nanometers
- λ-max (maximum absorption peak of dye) [2]: 541
- CSF (curve shape factor, 100 X TBW/HBW) [3]: 46.4
- HBW (half band width) [3]: 94 nanometers
- λ-max (maximum absorption peak of dye) [3]: 549
- CSF [3]: 42.6%
- HBW [3]: 94 nm
- λ-max [3]: 549 nm
SMILES: CCCCCCCCCCC(Oc1ccc(S(=O)(=O)c2ccc(O)cc2)cc1)C(=O)Nc1ccc(Cl)c(NC2=NN(c3c(Cl)cc(Cl)cc3Cl)C(=O)C2)c1 (stereo not drawn) [Coupler M-28]

- CSF (curve shape factor, 100 X TBW/HBW) [2]: 46.7
- HBW (half band width) [2]: 88 nanometers
- λ-max (maximum absorption peak of dye) [2]: 540
- CSF (curve shape factor, 100 X TBW/HBW) [3]: 40.9
- HBW (half band width) [3]: 90 nanometers
- λ-max (maximum absorption peak of dye) [3]: 545
SMILES: CCCCCCCCCCC(Oc1ccc(S(=O)(=O)c2ccc(O)cc2)cc1)C(=O)Nc1ccc(Cl)c(NC2=NN(c3c(Cl)cc(Cl)cc3Cl)C(=O)C2SCCCCCCC)c1 (stereo not drawn) [Coupler M-29]

- CSF (curve shape factor, 100 X TBW/HBW) [2]: 40.9
- HBW (half band width) [2]: 82 nanometers
- λ-max (maximum absorption peak of dye) [2]: 549
SMILES: CCCCCCCCCCC(CN(C)S(=O)(=O)c1ccc(NC2=NN(c3c(Cl)cc(S(=O)(=O)N(C)C)cc3Cl)C(=O)C2)c(Cl)c1)Oc1ccc(S(=O)(=O)c2ccc(O)cc2)cc1 (stereo not drawn) [Coupler M-32]

- CSF (curve shape factor, 100 X TBW/HBW) [4]: 43.7
- HBW (half band width) [4]: 88 nanometers
- λ-max (maximum absorption peak of dye) [4]: 449
SMILES: CC(C)(C)C(=O)C(Oc1ccc(S(=O)(=O)c2ccc(OCc3ccccc3)cc2)cc1)C(=O)Nc1cc(NS(=O)(=O)c2ccc(O)cc2)ccc1Cl (stereo not drawn) [Coupler Y-1]

- CSF (curve shape factor, 100 X TBW/HBW) [4]: 44.4
- HBW (half band width) [4]: 90 nanometers
- λ-max (maximum absorption peak of dye) [4]: 445
SMILES: CCCCC(Oc1ccc(S(=O)(=O)c2ccc(O)cc2)cc1)C(=O)Nc1ccc(Cl)c(NC(=O)C(Oc2ccc(S(=O)(=O)c3ccc(O)cc3)cc2)C(=O)C(C)(C)C)c1 (stereo not drawn) [Coupler Y-2]

- CSF (curve shape factor, 100 X TBW/HBW) [4]: 44.4
- HBW (half band width) [4]: 93 nanometers
- λ-max (maximum absorption peak of dye) [4]: 441
SMILES: CCCCC(Oc1ccc(S(=O)(=O)c2ccc(O)cc2)cc1)C(=O)Nc1cccc(NC(=O)C(Oc2ccc(S(=O)(=O)c3ccc(O)cc3)cc2)C(=O)C(C)(C)C)c1 (stereo not drawn) [Coupler Y-3]

- CSF (curve shape factor, 100 X TBW/HBW) [5]: 44.6
- HBW (half band width) [5]: 90 nanometers
- λ-max (maximum absorption peak of dye) [5]: 450
SMILES: CCCCCCCCCCC(Oc1ccc(S(=O)(=O)c2ccc(O)cc2)cc1)C(=O)Nc1ccc(Cl)c(NC(=O)C(Oc2ccc(S(=O)(=O)c3ccc(O)cc3)cc2)C(=O)C(C)(C)C)c1 (stereo not drawn) [Coupler Y-4]
